How the values were obtained:
OVCAR-8 = experiment: NCI 60-cell drug screen, Ovarian Cancer OVCAR-8; format: cell-based, human; settings: 1.00E−5 Molar
SK-OV-3 = experiment: NCI 60-cell drug screen, Ovarian Cancer SK-OV-3; format: cell-based, human; settings: 1.00E−5 Molar
M14 = experiment: NCI 60-cell drug screen, Melanoma M14; format: cell-based, human; settings: 1.00E−5 Molar
SNB-75 = experiment: NCI 60-cell drug screen, CNS Cancer SNB-75; format: cell-based, human; settings: 1.00E−5 Molar
SNB-19 = experiment: NCI 60-cell drug screen, CNS Cancer SNB-19; format: cell-based, human; settings: 1.00E−5 Molar
GBM8401 = experiment: MTT assay, GBM8401 tumor cell; settings: for Cell survival rate (%) GBM8401: concentration 10 μM, tumor cell
SF-295 = experiment: NCI 60-cell drug screen, CNS Cancer SF-295; format: cell-based, human; settings: 1.00E−5 Molar
A549/ATCC = experiment: NCI 60-cell drug screen, Non-Small Cell Lung Cancer A549/ATCC; format: cell-based, human; settings: 1.00E−5 Molar
LOX IMVI = experiment: NCI 60-cell drug screen, Melanoma LOX IMVI; format: cell-based, human; settings: 1.00E−5 Molar
UO-31 = experiment: NCI 60-cell drug screen, Renal Cancer UO-31; format: cell-based, human; settings: 1.00E−5 Molar
IGROV1 = experiment: NCI 60-cell drug screen, Ovarian Cancer IGROV1; format: cell-based, human; settings: 1.00E−5 Molar
786-0 = experiment: NCI 60-cell drug screen, Renal Cancer 786-0; format: cell-based, human; settings: 1.00E−5 Molar
MALME-3M = experiment: NCI 60-cell drug screen, Melanoma MALME-3M; format: cell-based, human; settings: 1.00E−5 Molar
UACC-62 = experiment: NCI 60-cell drug screen, Melanoma UACC-62; format: cell-based, human; settings: 1.00E−5 Molar
HCC-2998 = experiment: NCI 60-cell drug screen, Colon Cancer HCC-2998; format: cell-based, human; settings: 1.00E−5 Molar
EKVX = experiment: NCI 60-cell drug screen, Non-Small Cell Lung Cancer EKVX; format: cell-based, human; settings: 1.00E−5 Molar
SW-620 = experiment: NCI 60-cell drug screen, Colon Cancer SW-620; format: cell-based, human; settings: 1.00E−5 Molar
HCT-15 = experiment: NCI 60-cell drug screen, Colon Cancer HCT-15; format: cell-based, human; settings: 1.00E−5 Molar
HCT-116 = experiment: NCI 60-cell drug screen, Colon Cancer HCT-116; format: cell-based, human; settings: 1.00E−5 Molar
SK-MEL-2 = experiment: NCI 60-cell drug screen, Melanoma SK-MEL-2; format: cell-based, human; settings: 1.00E−5 Molar
U251 = experiment: NCI 60-cell drug screen, CNS Cancer U251; format: cell-based, human; settings: 1.00E−5 Molar
SK-MEL-28 = experiment: NCI 60-cell drug screen, Melanoma SK-MEL-28; format: cell-based, human; settings: 1.00E−5 Molar
NCI-H226 = experiment: NCI 60-cell drug screen, Non-Small Cell Lung Cancer NCI-H226; format: cell-based, human; settings: 1.00E−5 Molar
KM12 = experiment: NCI 60-cell drug screen, Colon Cancer KM12; format: cell-based, human; settings: 1.00E−5 Molar
SK-MEL-5 = experiment: NCI 60-cell drug screen, Melanoma SK-MEL-5; format: cell-based, human; settings: 1.00E−5 Molar
MOLT-4 = experiment: NCI 60-cell drug screen, Leukemia MOLT-4; format: cell-based, human; settings: 1.00E−5 Molar
HL-60(TB) = experiment: NCI 60-cell drug screen, Leukemia HL-60(TB); format: cell-based, human; settings: 1.00E−5 Molar
HOP-62 = experiment: NCI 60-cell drug screen, Non-Small Cell Lung Cancer HOP-62; format: cell-based, human; settings: 1.00E−5 Molar
ACHN = experiment: NCI 60-cell drug screen, Renal Cancer ACHN; format: cell-based, human; settings: 1.00E−5 Molar
SF-539 = experiment: NCI 60-cell drug screen, CNS Cancer SF-539; format: cell-based, human; settings: 1.00E−5 Molar
GBM8901 = experiment: MTT assay, GBM8901 tumor cell; settings: for Cell survival rate (%) GBM8901: concentration 10 μM, tumor cell
RPMI-8226 = experiment: NCI 60-cell drug screen, Leukemia RPMI-8226; format: cell-based, human; settings: 1.00E−5 Molar
A498 = experiment: NCI 60-cell drug screen, Renal Cancer A498; format: cell-based, human; settings: 1.00E−5 Molar
MCF7 = experiment: NCI 60-cell drug screen, Breast Cancer MCF7; format: cell-based, human; settings: 1.00E−5 Molar
OVCAR-5 = experiment: NCI 60-cell drug screen, Ovarian Cancer OVCAR-5; format: cell-based, human; settings: 1.00E−5 Molar
MDA-MB-231/ATCC = experiment: NCI 60-cell drug screen, Breast Cancer MDA-MB-231/ATCC; format: cell-based, human; settings: 1.00E−5 Molar
NCI-H522 = experiment: NCI 60-cell drug screen, Non-Small Cell Lung Cancer NCI-H522; format: cell-based, human; settings: 1.00E−5 Molar
SR = experiment: NCI 60-cell drug screen, Leukemia SR; format: cell-based, human; settings: 1.00E−5 Molar
RXF 393 = experiment: NCI 60-cell drug screen, Renal Cancer RXF 393; format: cell-based, human; settings: 1.00E−5 Molar
TK-10 = experiment: NCI 60-cell drug screen, Renal Cancer TK-10; format: cell-based, human; settings: 1.00E−5 Molar
SVG p12 = experiment: MTT assay, SVG p12 normal cell; settings: concentration 10 μM, normal cell
NCI-H460 = experiment: NCI 60-cell drug screen, Non-Small Cell Lung Cancer NCI-H460; format: cell-based, human; settings: 1.00E−5 Molar
K-562 = experiment: NCI 60-cell drug screen, Leukemia K-562; format: cell-based, human; settings: 1.00E−5 Molar
CCRF-CEM = experiment: NCI 60-cell drug screen, Leukemia CCRF-CEM; format: cell-based, human; settings: 1.00E−5 Molar
NCI-H322M = experiment: NCI 60-cell drug screen, Non-Small Cell Lung Cancer NCI-H322M; format: cell-based, human; settings: 1.00E−5 Molar
PC-3 = experiment: NCI 60-cell drug screen, Prostate Cancer PC-3; format: cell-based, human; settings: 1.00E−5 Molar
[1] = system: 60 kinds of different human cancer cells; experiment: NCI 60-cell drug screen, whole panel (One Dose Mean Graph); format: cell-based; settings: mean over the cell lines of the panel; 1.00E−5 Molar
BT-549 = experiment: NCI 60-cell drug screen, Breast Cancer BT-549; format: cell-based, human; settings: 1.00E−5 Molar
OVCAR-4 = experiment: NCI 60-cell drug screen, Ovarian Cancer OVCAR-4; format: cell-based, human; settings: 1.00E−5 Molar
COLO 205 = experiment: NCI 60-cell drug screen, Colon Cancer COLO 205; format: cell-based, human; settings: 1.00E−5 Molar
NCI-H23 = experiment: NCI 60-cell drug screen, Non-Small Cell Lung Cancer NCI-H23; format: cell-based, human; settings: 1.00E−5 Molar
T-47D = experiment: NCI 60-cell drug screen, Breast Cancer T-47D; format: cell-based, human; settings: 1.00E−5 Molar

## CCCSc1nc2ccc3c(c2[nH]1)C(=O)c1ccccc1C3=O [f1-2, 2-(propylthio)-1H-anthra[1,2-d]imidazole-6,11-dione]
OVCAR-8
  Growth Percent, OVCAR-8: 44.68%
SK-OV-3
  Growth Percent, SK-OV-3: 38.92%
M14
  Growth Percent, M14: 89.99%
SNB-75
  Growth Percent, SNB-75: −9.55%
SNB-19
  Growth Percent, SNB-19: 82.03%
GBM8401
  Cell survival rate (%) GBM8401: 62 ± 18%
SF-295
  Growth Percent, SF-295: 37.25%
A549/ATCC
  Growth Percent, A549/ATCC: 59.15%
LOX IMVI
  Growth Percent, LOX IMVI: 62.57%
UO-31
  Growth Percent, UO-31: 24.49%
IGROV1
  Growth Percent, IGROV1: 53.72%
786-0
  Growth Percent, 786-0: 21.82%
MALME-3M
  Growth Percent, MALME-3M: 88.24%
UACC-62
  Growth Percent, UACC-62: 51.07%
HCC-2998
  Growth Percent, HCC-2998: 81.92%
EKVX
  Growth Percent, EKVX: 76.83%
SW-620
  Growth Percent, SW-620: 104.18%
HCT-15
  Growth Percent, HCT-15: 67.65%
HCT-116
  Growth Percent, HCT-116: 47.69%
SK-MEL-2
  Growth Percent, SK-MEL-2: 79.33%
U251
  Growth Percent, U251: 62.95%
SK-MEL-28
  Growth Percent, SK-MEL-28: 92.59%
NCI-H226
  Growth Percent, NCI-H226: 50.24%
KM12
  Growth Percent, KM12: 55.17%
SK-MEL-5
  Growth Percent, SK-MEL-5: 78.52%
MOLT-4
  Growth Percent, MOLT-4: 68.13%
HL-60(TB)
  Growth Percent, HL-60(TB): 74.23%
HOP-62
  Growth Percent, HOP-62: 59.09%
ACHN
  Growth Percent, ACHN: 27.16%
SF-539
  Growth Percent, SF-539: 23.99%
GBM8901
  Cell survival rate (%) GBM8901: 62 ± 7%
RPMI-8226
  Growth Percent, RPMI-8226: 71.75%
A498
  Growth Percent, A498: 57.26%
MCF7
  Growth Percent, MCF7: 58.97%
OVCAR-5
  Growth Percent, OVCAR-5: 99.67%
MDA-MB-231/ATCC
  Growth Percent, MDA-MB-231/ATCC: 26.44%
NCI-H522
  Growth Percent, NCI-H522: 72.38%
SR
  Growth Percent, SR: 71.03%
RXF 393
  Growth Percent, RXF 393: 20.07%
TK-10
  Growth Percent, TK-10: 35.55%
SVG p12
  Cell survival rate (%) SVG p12: 99%
NCI-H460
  Growth Percent, NCI-H460: 68.12%
K-562
  Growth Percent, K-562: 62.88%
CCRF-CEM
  Growth Percent, CCRF-CEM: 70.83%
NCI-H322M
  Growth Percent, NCI-H322M: 76.02%
PC-3
  Growth Percent, PC-3: 66.76%
[1]
  Growth Percent, Mean: 60.02%
BT-549
  Growth Percent, BT-549: 76.00%
OVCAR-4
  Growth Percent, OVCAR-4: 42.16%
COLO 205
  Growth Percent, COLO 205: 102.68%
NCI-H23
  Growth Percent, NCI-H23: 69.80%
T-47D
  Growth Percent, T-47D: 53.72%

## O=C1c2ccccc2C(=O)c2c1ccc1nc3n(c21)CCS3 [f3-1, 2-(2-N-ethylthio)-1H-anthra[1,2-d]imidazole-6,11-dione]
OVCAR-8
  Growth Percent, OVCAR-8: 75.40%
SK-OV-3
  Growth Percent, SK-OV-3: 87.43%
M14
  Growth Percent, M14: 78.50%
SNB-75
  Growth Percent, SNB-75: 95.57%
SNB-19
  Growth Percent, SNB-19: 74.47%
GBM8401
  Cell survival rate (%) GBM8401: 42 ± 16%
GBM8401; survival rate less than 80%
  inhibitory effect against tumor cell GBM8401: exhibited inhibitory effect against tumor cell GBM8401
SF-295
  Growth Percent, SF-295: 78.56%
A549/ATCC
  Growth Percent, A549/ATCC: 81.15%
LOX IMVI
  Growth Percent, LOX IMVI: 65.93%
UO-31
  Growth Percent, UO-31: 45.79%
IGROV1
  Growth Percent, IGROV1: 62.31%
786-0
  Growth Percent, 786-0: 92.44%
MALME-3M
  Growth Percent, MALME-3M: 87.59%
UACC-62
  Growth Percent, UACC-62: 73.06%
HCC-2998
  Growth Percent, HCC-2998: 94.76%
EKVX
  Growth Percent, EKVX: 35.80%
SW-620
  Growth Percent, SW-620: 69.29%
HCT-15
  Growth Percent, HCT-15: 57.15%
HCT-116
  Growth Percent, HCT-116: 68.43%
SK-MEL-2
  Growth Percent, SK-MEL-2: 99.88%
U251
  Growth Percent, U251: 72.48%
SK-MEL-28
  Growth Percent, SK-MEL-28: 109.36%
NCI-H226
  Growth Percent, NCI-H226: 80.53%
KM12
  Growth Percent, KM12: 84.88%
SK-MEL-5
  Growth Percent, SK-MEL-5: 65.88%
MOLT-4
  Growth Percent, MOLT-4: 58.39%
HL-60(TB)
  Growth Percent, HL-60(TB): 78.84%
HOP-62
  Growth Percent, HOP-62: 85.26%
ACHN
  Growth Percent, ACHN: 59.35%
SF-539
  Growth Percent, SF-539: 74.06%
GBM8901
  Cell survival rate (%) GBM8901: 37 ± 4%
GBM8901; survival rate less than 80%
  inhibitory effect against tumor cell GBM8901: exhibited inhibitory effect against tumor cell GBM8901
RPMI-8226
  Growth Percent, RPMI-8226: 71.65%
A498
  Growth Percent, A498: 73.67%
MCF7
  Growth Percent, MCF7: 64.78%
OVCAR-5
  Growth Percent, OVCAR-5: 105.31%
MDA-MB-231/ATCC
  Growth Percent, MDA-MB-231/ATCC: 94.00%
NCI-H522
  Growth Percent, NCI-H522: 80.62%
SR
  Growth Percent, SR: 60.62%
RXF 393
  Growth Percent, RXF 393: 46.50%
TK-10
  Growth Percent, TK-10: 58.78%
SVG p12
  Cell survival rate (%) SVG p12: 62 ± 1%
NCI-H460
  Growth Percent, NCI-H460: 59.46%
K-562
  Growth Percent, K-562: 78.71%
CCRF-CEM
  Growth Percent, CCRF-CEM: 66.81%
NCI-H322M
  Growth Percent, NCI-H322M: 72.06%
PC-3
  Growth Percent, PC-3: 93.92%
[1]
  Growth Percent, Mean: 75.99%
BT-549
  Growth Percent, BT-549: 87.90%
OVCAR-4
  Growth Percent, OVCAR-4: 89.29%
COLO 205
  Growth Percent, COLO 205: 95.22%
NCI-H23
  Growth Percent, NCI-H23: 84.29%
T-47D
  Growth Percent, T-47D: 73.06%
